Results taken from the kinase profiling compilation of Christmann-Franck et al. (2016).

Key:
Assay in all cases: radiometric filter-binding kinase assay
TTK (human) = TTK (human) (UniProt P33981)
MELK (human) = MELK (human) (UniProt Q14680)
PAK6 (human) = PAK6 (human) (UniProt Q9NQU5)
DYRK2 (human) = DYRK2 (human) (UniProt Q92630)
MAPKAPK5 (human) = MAPKAPK5 (human) (UniProt Q8IW41)
MYLK (human) = MYLK (human) (UniProt Q15746)
CSNK2A1 (human) = CSNK2A1 (human) (UniProt P68400)
RPS6KA5 KD1 KD2 (human) = RPS6KA5 KD1 KD2 (human) (UniProt O75582)
Chain of RPS6KA5 KD1 KD2 (human) (O75582 whole entry, looked up): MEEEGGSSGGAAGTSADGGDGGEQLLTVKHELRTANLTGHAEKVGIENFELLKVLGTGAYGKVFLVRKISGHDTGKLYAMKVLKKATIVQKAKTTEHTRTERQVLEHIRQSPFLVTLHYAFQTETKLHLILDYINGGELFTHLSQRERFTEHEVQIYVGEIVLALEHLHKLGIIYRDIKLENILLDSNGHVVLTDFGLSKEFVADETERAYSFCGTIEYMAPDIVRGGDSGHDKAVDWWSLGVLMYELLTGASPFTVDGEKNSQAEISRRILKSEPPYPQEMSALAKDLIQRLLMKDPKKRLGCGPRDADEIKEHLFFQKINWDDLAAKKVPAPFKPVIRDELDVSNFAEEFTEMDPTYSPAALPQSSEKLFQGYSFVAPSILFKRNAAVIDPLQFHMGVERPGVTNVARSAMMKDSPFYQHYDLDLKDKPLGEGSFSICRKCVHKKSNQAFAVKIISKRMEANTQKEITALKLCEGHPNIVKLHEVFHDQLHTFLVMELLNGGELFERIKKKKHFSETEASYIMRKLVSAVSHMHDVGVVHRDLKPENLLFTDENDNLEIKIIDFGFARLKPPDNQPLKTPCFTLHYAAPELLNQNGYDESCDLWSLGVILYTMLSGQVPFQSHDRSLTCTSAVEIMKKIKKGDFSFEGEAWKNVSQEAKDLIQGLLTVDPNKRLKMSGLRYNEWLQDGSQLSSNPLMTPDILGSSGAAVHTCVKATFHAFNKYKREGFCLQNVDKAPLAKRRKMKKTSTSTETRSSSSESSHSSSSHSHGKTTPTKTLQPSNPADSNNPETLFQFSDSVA

BTK (human) = BTK (human) (UniProt Q06187)
CHEK2 (human) = CHEK2 (human) (UniProt O96017)
CDK2 CCNA2 (human) = CDK2 CCNA2 (human) (UniProt P20248+P24941)
MAPK3 (human) = MAPK3 (human) (UniProt P27361)
PHKG1 (human) = PHKG1 (human) (UniProt Q16816)
BRSK2 (human) = BRSK2 (human) (UniProt Q8IWQ3)
CHEK1 (human) = CHEK1 (human) (UniProt O14757)
Chain of CHEK1 (human) (O14757 whole entry, looked up): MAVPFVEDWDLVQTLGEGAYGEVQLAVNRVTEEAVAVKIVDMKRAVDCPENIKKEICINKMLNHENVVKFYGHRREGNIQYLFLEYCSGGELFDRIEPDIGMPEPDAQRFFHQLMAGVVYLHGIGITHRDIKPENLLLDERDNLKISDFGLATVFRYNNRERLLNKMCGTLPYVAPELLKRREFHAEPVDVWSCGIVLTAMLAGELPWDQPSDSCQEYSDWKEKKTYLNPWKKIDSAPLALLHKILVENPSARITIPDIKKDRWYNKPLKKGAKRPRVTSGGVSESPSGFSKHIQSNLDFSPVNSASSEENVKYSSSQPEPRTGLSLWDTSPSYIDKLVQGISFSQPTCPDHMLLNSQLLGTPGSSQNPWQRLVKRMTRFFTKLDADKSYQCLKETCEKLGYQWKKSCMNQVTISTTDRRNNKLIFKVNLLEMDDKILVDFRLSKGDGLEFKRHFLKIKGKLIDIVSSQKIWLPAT

[1] = system: SGK1 (human), O00141 [S422D]
Chain of SGK1 (human), O00141 [S422D] (O00141 whole entry S422D, looked up): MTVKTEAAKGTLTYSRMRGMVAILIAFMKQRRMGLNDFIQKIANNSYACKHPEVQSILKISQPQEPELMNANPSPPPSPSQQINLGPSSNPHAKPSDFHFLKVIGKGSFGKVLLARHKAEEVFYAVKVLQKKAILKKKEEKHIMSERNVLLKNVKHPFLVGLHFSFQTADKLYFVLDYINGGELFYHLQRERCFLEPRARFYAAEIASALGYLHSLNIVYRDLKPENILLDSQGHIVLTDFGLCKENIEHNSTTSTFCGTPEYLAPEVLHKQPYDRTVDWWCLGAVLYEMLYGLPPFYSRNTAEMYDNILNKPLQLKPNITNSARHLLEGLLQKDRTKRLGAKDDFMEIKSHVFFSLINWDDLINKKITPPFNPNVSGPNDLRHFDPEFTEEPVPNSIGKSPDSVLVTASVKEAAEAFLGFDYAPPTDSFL

MAPK15 (human) = MAPK15 (human) (UniProt Q8TD08)
Chain of MAPK15 (human) (Q8TD08 whole entry, looked up): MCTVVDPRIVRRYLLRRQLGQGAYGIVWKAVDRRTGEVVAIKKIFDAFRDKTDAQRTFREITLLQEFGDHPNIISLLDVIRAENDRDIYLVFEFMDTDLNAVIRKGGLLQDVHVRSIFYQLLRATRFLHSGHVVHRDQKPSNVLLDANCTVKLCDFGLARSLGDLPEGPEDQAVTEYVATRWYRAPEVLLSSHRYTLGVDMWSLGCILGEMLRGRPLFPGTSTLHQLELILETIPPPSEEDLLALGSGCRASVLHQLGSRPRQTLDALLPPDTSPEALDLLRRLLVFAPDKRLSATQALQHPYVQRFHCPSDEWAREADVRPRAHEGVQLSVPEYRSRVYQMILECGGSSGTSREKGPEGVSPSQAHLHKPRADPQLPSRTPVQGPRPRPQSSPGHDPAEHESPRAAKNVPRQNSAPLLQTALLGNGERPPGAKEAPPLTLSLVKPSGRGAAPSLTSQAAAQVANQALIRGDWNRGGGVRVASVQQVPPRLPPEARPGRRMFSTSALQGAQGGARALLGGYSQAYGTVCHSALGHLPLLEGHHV

NEK2 (human) = NEK2 (human) (UniProt P51955)
MINK1 (human) = MINK1 (human) (UniProt Q8N4C8)
Chain of MINK1 (human) (Q8N4C8 whole entry, looked up): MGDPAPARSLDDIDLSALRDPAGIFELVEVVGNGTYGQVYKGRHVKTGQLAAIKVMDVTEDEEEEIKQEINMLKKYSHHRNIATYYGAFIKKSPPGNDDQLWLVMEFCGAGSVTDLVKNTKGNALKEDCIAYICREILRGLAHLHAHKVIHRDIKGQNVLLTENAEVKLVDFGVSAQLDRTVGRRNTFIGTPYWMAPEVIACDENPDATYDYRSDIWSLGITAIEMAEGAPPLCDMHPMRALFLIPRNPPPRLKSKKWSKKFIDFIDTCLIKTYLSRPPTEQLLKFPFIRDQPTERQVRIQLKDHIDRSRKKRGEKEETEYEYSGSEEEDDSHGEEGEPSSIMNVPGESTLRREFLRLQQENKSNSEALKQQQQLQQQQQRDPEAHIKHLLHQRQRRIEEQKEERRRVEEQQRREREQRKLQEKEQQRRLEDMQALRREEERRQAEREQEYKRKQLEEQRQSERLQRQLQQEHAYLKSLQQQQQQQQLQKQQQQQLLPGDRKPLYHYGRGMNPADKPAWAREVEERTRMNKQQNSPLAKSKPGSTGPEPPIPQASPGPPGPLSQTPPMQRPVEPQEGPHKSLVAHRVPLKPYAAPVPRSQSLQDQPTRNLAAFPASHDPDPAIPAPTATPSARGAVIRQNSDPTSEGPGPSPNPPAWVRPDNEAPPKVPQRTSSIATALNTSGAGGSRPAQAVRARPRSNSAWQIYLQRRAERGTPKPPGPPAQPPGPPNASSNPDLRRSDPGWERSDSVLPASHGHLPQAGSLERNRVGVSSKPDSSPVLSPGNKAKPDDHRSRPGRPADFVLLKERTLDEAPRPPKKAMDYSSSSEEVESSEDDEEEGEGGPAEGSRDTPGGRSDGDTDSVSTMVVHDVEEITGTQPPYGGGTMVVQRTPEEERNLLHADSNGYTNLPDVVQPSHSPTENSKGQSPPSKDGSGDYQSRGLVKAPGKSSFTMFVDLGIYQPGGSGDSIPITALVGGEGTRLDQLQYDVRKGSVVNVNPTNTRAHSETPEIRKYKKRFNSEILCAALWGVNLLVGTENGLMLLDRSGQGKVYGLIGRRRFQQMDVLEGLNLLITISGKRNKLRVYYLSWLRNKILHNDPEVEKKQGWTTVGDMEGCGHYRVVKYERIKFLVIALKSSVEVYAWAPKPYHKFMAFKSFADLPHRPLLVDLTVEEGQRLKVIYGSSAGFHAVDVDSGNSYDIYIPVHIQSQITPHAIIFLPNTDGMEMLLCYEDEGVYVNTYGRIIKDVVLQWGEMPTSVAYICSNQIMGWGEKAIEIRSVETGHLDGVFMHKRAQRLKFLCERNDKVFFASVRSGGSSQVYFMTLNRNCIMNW

TBK1 (human) = TBK1 (human) (UniProt Q9UHD2)
INSRR (human) = INSRR (human) (UniProt P14616)
MARK3 (human) = MARK3 (human) (UniProt P27448)
ERBB4 (human) = ERBB4 (human) (UniProt Q15303)
PIM2 (human) = PIM2 (human) (UniProt Q9P1W9)
Chain of PIM2 (human) (Q9P1W9 whole entry, looked up): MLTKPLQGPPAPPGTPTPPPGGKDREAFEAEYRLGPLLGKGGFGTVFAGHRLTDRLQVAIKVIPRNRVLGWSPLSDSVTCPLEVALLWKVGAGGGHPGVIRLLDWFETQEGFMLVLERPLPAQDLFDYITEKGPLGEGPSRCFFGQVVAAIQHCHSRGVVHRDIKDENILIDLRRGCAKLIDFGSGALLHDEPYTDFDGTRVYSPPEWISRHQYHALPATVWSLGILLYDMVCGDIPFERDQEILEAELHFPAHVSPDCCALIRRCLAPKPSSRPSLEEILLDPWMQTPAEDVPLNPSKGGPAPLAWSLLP

MAPK9 (human) = MAPK9 (human) (UniProt P45984)
Chain of MAPK9 (human) (P45984 whole entry, looked up): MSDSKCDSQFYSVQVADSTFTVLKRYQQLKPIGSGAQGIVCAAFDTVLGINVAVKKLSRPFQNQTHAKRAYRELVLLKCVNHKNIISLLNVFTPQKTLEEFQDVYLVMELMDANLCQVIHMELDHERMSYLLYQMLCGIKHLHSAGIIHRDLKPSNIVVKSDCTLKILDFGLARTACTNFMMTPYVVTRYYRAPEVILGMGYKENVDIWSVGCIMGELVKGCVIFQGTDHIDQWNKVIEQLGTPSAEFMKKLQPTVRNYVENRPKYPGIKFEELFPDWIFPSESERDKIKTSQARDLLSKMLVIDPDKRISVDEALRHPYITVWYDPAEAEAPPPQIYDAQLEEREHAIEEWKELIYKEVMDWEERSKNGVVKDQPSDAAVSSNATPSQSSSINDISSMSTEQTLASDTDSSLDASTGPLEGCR

RIPK2 (human) = RIPK2 (human) (UniProt O43353)
ROCK2 (rat) = settings: accession and sequence are those of the human protein
IRAK4 (human) = IRAK4 (human) (UniProt Q9NWZ3)
[2] = system: RPS6KB1 (human), P23443 [T412E]

Chain of MAPKAPK5 (human) (Q8IW41 whole entry, looked up): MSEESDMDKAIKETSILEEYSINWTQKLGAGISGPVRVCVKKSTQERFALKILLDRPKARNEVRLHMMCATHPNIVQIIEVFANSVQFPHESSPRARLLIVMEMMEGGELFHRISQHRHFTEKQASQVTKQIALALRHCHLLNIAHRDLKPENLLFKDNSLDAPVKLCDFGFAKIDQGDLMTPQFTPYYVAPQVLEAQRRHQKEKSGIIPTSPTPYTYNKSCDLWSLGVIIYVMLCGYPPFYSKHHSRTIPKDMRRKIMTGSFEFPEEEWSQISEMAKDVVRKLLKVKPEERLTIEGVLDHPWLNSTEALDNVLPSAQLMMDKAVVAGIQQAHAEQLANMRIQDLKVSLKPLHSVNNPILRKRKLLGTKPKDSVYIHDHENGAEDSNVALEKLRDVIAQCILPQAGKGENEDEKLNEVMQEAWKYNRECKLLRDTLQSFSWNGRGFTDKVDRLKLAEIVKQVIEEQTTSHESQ

SMILES: CNc1nc(-c2ccc3c(N)n[nH]c3c2)cc(N2C[C@@H](C(=O)NC3CCCCC3)CC[C@H]2C)n1
- residual activity (TTK (human); compound 0.01 µM): 90%
- residual activity (TTK (human); compound 0.1 µM): 98%
- residual activity (TTK (human); compound 1.0 µM): 82%
- residual activity (MELK (human); compound 0.01 µM): 115%
- residual activity (MELK (human); compound 0.1 µM): 77%
- residual activity (MELK (human); compound 1.0 µM): 23%
- residual activity (PAK6 (human); compound 0.01 µM): 108%
- residual activity (PAK6 (human); compound 0.1 µM): 120%
- residual activity (PAK6 (human); compound 1.0 µM): 124%
- residual activity (DYRK2 (human); compound 0.01 µM): 100%
- residual activity (DYRK2 (human); compound 0.1 µM): 108%
- residual activity (DYRK2 (human); compound 1.0 µM): 102%
- residual activity (MAPKAPK5 (human); compound 0.01 µM): 81%
- residual activity (MAPKAPK5 (human); compound 0.1 µM): 92%
- residual activity (MAPKAPK5 (human); compound 1.0 µM): 76%
- residual activity (MYLK (human); compound 0.01 µM): 116%
- residual activity (MYLK (human); compound 0.1 µM): 113%
- residual activity (MYLK (human); compound 1.0 µM): 92%
- residual activity (CSNK2A1 (human); compound 0.01 µM): 103%
- residual activity (CSNK2A1 (human); compound 0.1 µM): 104%
- residual activity (CSNK2A1 (human); compound 1.0 µM): 94%
- residual activity (RPS6KA5 KD1 KD2 (human); compound 0.01 µM): 102%
- residual activity (RPS6KA5 KD1 KD2 (human); compound 0.1 µM): 100%
- residual activity (RPS6KA5 KD1 KD2 (human); compound 1.0 µM): 94%
- residual activity (BTK (human); compound 0.01 µM): 126%
- residual activity (BTK (human); compound 0.1 µM): 121%
- residual activity (BTK (human); compound 1.0 µM): 110%
- residual activity (CHEK2 (human); compound 0.01 µM): 129%
- residual activity (CHEK2 (human); compound 0.1 µM): 121%
- residual activity (CDK2 CCNA2 (human); compound 0.01 µM): 104%
- residual activity (CDK2 CCNA2 (human); compound 0.1 µM): 101%
- residual activity (CDK2 CCNA2 (human); compound 1.0 µM): 105%
- residual activity (MAPK3 (human); compound 0.01 µM): 93%
- residual activity (MAPK3 (human); compound 0.1 µM): 106%
- residual activity (MAPK3 (human); compound 1.0 µM): 94%
- residual activity (PHKG1 (human); compound 0.01 µM): 106%
- residual activity (PHKG1 (human); compound 0.1 µM): 108%
- residual activity (PHKG1 (human); compound 1.0 µM): 103%
- residual activity (BRSK2 (human); compound 0.01 µM): 114%
- residual activity (BRSK2 (human); compound 0.1 µM): 110%
- residual activity (CHEK1 (human); compound 0.01 µM): 111%
- residual activity (CHEK1 (human); compound 0.1 µM): 106%
- residual activity (CHEK1 (human); compound 1.0 µM): 104%
- residual activity ([1]; compound 0.01 µM): 96%
- residual activity ([1]; compound 0.1 µM): 96%
- residual activity ([1]; compound 1.0 µM): 37%
- residual activity (MAPK15 (human); compound 0.01 µM): 106%
- residual activity (MAPK15 (human); compound 0.1 µM): 117%
- residual activity (MAPK15 (human); compound 1.0 µM): 107%
- residual activity (NEK2 (human); compound 0.01 µM): 118%
- residual activity (NEK2 (human); compound 0.1 µM): 118%
- residual activity (NEK2 (human); compound 1.0 µM): 106%
- residual activity (MINK1 (human); compound 0.01 µM): 121%
- residual activity (MINK1 (human); compound 0.1 µM): 110%
- residual activity (MINK1 (human); compound 1.0 µM): 105%
- residual activity (TBK1 (human); compound 0.01 µM): 110%
- residual activity (TBK1 (human); compound 0.1 µM): 115%
- residual activity (TBK1 (human); compound 1.0 µM): 109%
- residual activity (INSRR (human); compound 0.01 µM): 111%
- residual activity (INSRR (human); compound 0.1 µM): 111%
- residual activity (INSRR (human); compound 1.0 µM): 109%
- residual activity (MARK3 (human); compound 0.01 µM): 113%
- residual activity (MARK3 (human); compound 0.1 µM): 109%
- residual activity (MARK3 (human); compound 1.0 µM): 114%
- residual activity (ERBB4 (human); compound 0.01 µM): 106%
- residual activity (ERBB4 (human); compound 0.1 µM): 107%
- residual activity (ERBB4 (human); compound 1.0 µM): 106%
- residual activity (PIM2 (human); compound 0.01 µM): 97%
- residual activity (PIM2 (human); compound 0.1 µM): 100%
- residual activity (PIM2 (human); compound 1.0 µM): 97%
- residual activity (MAPK9 (human); compound 0.01 µM): 117%
- residual activity (MAPK9 (human); compound 0.1 µM): 126%
- residual activity (MAPK9 (human); compound 1.0 µM): 120%
- residual activity (RIPK2 (human); compound 0.01 µM): 110%
- residual activity (RIPK2 (human); compound 0.1 µM): 114%
- residual activity (RIPK2 (human); compound 1.0 µM): 107%
- residual activity (ROCK2 (rat); compound 0.01 µM): 96%
- residual activity (ROCK2 (rat); compound 0.1 µM): 92%
- residual activity (ROCK2 (rat); compound 1.0 µM): 70%
- residual activity (IRAK4 (human); compound 0.01 µM): 109%
- residual activity (IRAK4 (human); compound 0.1 µM): 112%
- residual activity (IRAK4 (human); compound 1.0 µM): 106%
- residual activity ([2]; compound 0.01 µM): 111%
- residual activity ([2]; compound 0.1 µM): 106%
- residual activity ([2]; compound 1.0 µM): 100%
